Reference: US7723562B2, “Mice lacking alpha 1G showing enhanced novelty-seeking and alcohol preference and therapeutic methods for mood disorders by modulating alpha 1G T-type calcium channels” (Korea Institute of Science and Technology, priority 2004, dated 2010)
“Also recorded” adds a separate entry of the source.

System: α1G−/− transgenic mice
Assay: Mobility in an open field after drug treatment (pharmacological analysis)
Format: in vivo, mouse
Conditions: 0.5 mg/kg injected into abdominal cavity, FIG. 8
Excerpt: For reactivity test in an open field, a test animal was transferred to a test room one hour before the test began and each animal was put in an independent breeding cage for adaptation.
In order to investigate whether or not mobility increase of α1G−/− transgenic mice is related to diseases such as attention-deficit hyperactive disorder, schizophrenia, stereotype, etc., the present inventors have performed analysis of pharmacological effect of lithium and amphetamine which have been used as a therapeutic agent for the above diseases.
First, the effect of lithium and amphetamine on reactivity to a new subject was investigated. Particularly, one hour before exposing a test animal on an experimental device, lithium or amphetamine (0.5 mg/kg, injection 10 ml/kg) was injected into abdominal cavity of the animal. The test procedure was in accordance with that of reactivity test in an open field, but a breeding cage (24×18×13 cm) took the place of a white acryl open field in this example and a subject used was a styrofoam covered with 0.5 g aluminum foil and the size of which was 1.5×1.5×1.5 cm. Behavior of the animal was all recorded by a video camera for further analysis. Same standard and behavior index were used.

SMILES: CC(N)Cc1ccccc1 (centres unmarked) [amphetamine]
- early mobility increase of α1G−/− transgenic mice: not mitigated; also recorded: did not decrease
- non environment dependent mobility increase: over-induced; also recorded: increased excessively
